# US20220332764A1, “T CELL EPITOPES OF HCMV AND USES OF THEREOF” (EBERHARD KARLS UNIVERSITÄT TÜBINGEN, priority 2019, published 2022)
# Read-outs that look alike come from different tables or passages of the source.
# Legend:
# [1] = test system: PBMCs of healthy HCMV-seropositive donors; assay: ex vivo IFNγ ELISpot without prestimulation; type: cell-based, human; settings: for % Positive donors (ex vivo): IFNγ ELISpot ex vivo, donors previously tested positive; for ELISpot response rate (ex vivo): donors positively tested in ELISpots with 12d stimulation
# Excerpt: (§1) PHA was used as positive control.
# [2] = test system: CD8+ / CD4+ T cells of donor PBMCs; assay: Intracellular cytokine staining (ICS; IFNγ, TNFα, CD107a); type: cell-based, human; settings: for Intracellular staining: responding T-cell subset; for Intracellular cytokine staining: responding T-cell subset after peptide stimulation
# Excerpt: PHA was used as positive control. […] (Cytofix/Cytoperm, BD Biosciences).
# HLA = settings: Table 2, preferred dominant epitopes
# [3] = test system: PBMCs of healthy HCMV-seropositive donors; assay: IFNγ ELISpot after 12 day stimulation (memory T-cell response); type: cell-based, human; settings: for % Positive donors (after 12 days of stimulation): IFNγ ELISpot, HLA-matched seropositive donors; for ELISpot response rate (12 d stim.): 12-day amplification with IL-2 in vitro; for Positive donors as tested: positive / tested HLA-matched seropositive donors, positive: >10 spots/well and at least 3-fold negative control
# Excerpt: as §1
# [4] = test system: CD8+ T cells of HLA-matched healthy donors; settings: for Tetramer-staining: after 12 day amplification
Sequence,% Positive donors (ex vivo) [1] [%],Intracellular cytokine staining [2],% Positive donors (after 12 days of stimulation) [3] [%],Positive donors as tested [3],Tetramer-staining [4],other results
GLFAVENFL (listed as Human cytomegalovirus) [SEQ ID NO: 4],0.0,CD4,53.9,7/13,–,ELISpot response rate (ex vivo) ([1]; Tested HLA A*02:01): 0.0; Intracellular staining ([2]; Tested HLA A*02:01): CD4; actual HLA restriction (HLA): Class II; ELISpot response rate (12 d stim.) ([3]; Tested HLA A*02:01): 53.9
LPLKMLNI (listed as Human cytomegalovirus) [SEQ ID NO: 87],87.5,CD8,80.0,12/15,Positive,Tetramer staining ([4]; Tested HLA B*51:01): positive; ELISpot response rate (ex vivo) ([1]; Tested HLA B*51:01): 87.5; Intracellular staining ([2]; Tested HLA B*51:01): CD8; ELISpot response rate (12 d stim.) ([3]; Tested HLA B*51:01): 80.0
SPRHLYISL (listed as Human cytomegalovirus) [SEQ ID NO: 29],0.0,CD4/CD8,50.0,11/22,Positive,Tetramer staining ([4]; Tested HLA B*07:02): positive; ELISpot response rate (ex vivo) ([1]; Tested HLA B*07:02): 0.0; ELISpot response rate (12 d stim.) ([3]; Tested HLA B*07:02): 50.0
NTDFRVLELY (listed as Human cytomegalovirus) [SEQ ID NO: 55],0.0,CD8,56.3,9/16,Positive,Tetramer staining ([4]; Tested HLA A*01:01): positive; ELISpot response rate (ex vivo) ([1]; Tested HLA A*01:01): 0.0; Intracellular staining ([2]; Tested HLA A*01:01): CD8; ELISpot response rate (12 d stim.) ([3]; Tested HLA A*01:01): 56.3
FLDENFKQL (listed as Human cytomegalovirus) [SEQ ID NO: 5],37.5,CD4,47.6,10/21,Negative,–
FPVEVRSHV (listed as Human cytomegalovirus) [SEQ ID NO: 88],0.0,CD8,65.2,15/23,Positive,Tetramer staining ([4]; Tested HLA B*51:01): positive; ELISpot response rate (ex vivo) ([1]; Tested HLA B*51:01): 0.0; Intracellular staining ([2]; Tested HLA B*51:01): CD8; ELISpot response rate (12 d stim.) ([3]; Tested HLA B*51:01): 65.2
TPRVTGGGAM (listed as Human cytomegalovirus) [SEQ ID NO: 25],100.0,CD8,81.6,31/38,Positive,Tetramer staining ([4]; Tested HLA B*07:02): positive; ELISpot response rate (ex vivo) ([1]; Tested HLA B*07:02): 100.0; Intracellular staining ([2]; Tested HLA B*07:02): CD8; ELISpot response rate (12 d stim.) ([3]; Tested HLA B*07:02): 81.6
SESEFIVRY (listed as Human cytomegalovirus) [SEQ ID NO: 43],37.5,CD8,40.0,8/20,Positive,–
HETGVYQMW (listed as Human cytomegalovirus) [SEQ ID NO: 41],62.5,CD8,65.4,17/26,Positive,Tetramer staining ([4]; Tested HLA B*44:02): positive; ELISpot response rate (ex vivo) ([1]; Tested HLA B*44:02): 62.5; Intracellular staining ([2]; Tested HLA B*44:02): CD8; ELISpot response rate (12 d stim.) ([3]; Tested HLA B*44:02): 65.4
DEQVSKRSW (listed as Human cytomegalovirus) [SEQ ID NO: 42],12.5,CD8,45.8,11/24,Positive,–
NLVPMVATV (listed as Human cytomegalovirus) [SEQ ID NO: 101],–,–,–,–,–,Tetramer staining ([4]; Tested HLA A*02:01): positive; ELISpot response rate (ex vivo) ([1]; Tested HLA A*02:01): 100.0; Intracellular staining ([2]; Tested HLA A*02:01): CD8; ELISpot response rate (12 d stim.) ([3]; Tested HLA A*02:01): 75.0
SPRDAWIVL (listed as Human cytomegalovirus) [SEQ ID NO: 26],20.0,CD8,68.2,15/22,Positive,Tetramer staining ([4]; Tested HLA B*07:02): positive; ELISpot response rate (ex vivo) ([1]; Tested HLA B*07:02): 20.0; Intracellular staining ([2]; Tested HLA B*07:02): CD8; ELISpot response rate (12 d stim.) ([3]; Tested HLA B*07:02): 68.2
DARSRIHNV (listed as Human cytomegalovirus) [SEQ ID NO: 89],–,CD8,53.3,8/15,Positive,Tetramer staining ([4]; Tested HLA B*51:01): positive; ELISpot response rate (ex vivo) ([1]; Tested HLA B*51:01): 20.0; Intracellular staining ([2]; Tested HLA B*51:01): CD8; ELISpot response rate (12 d stim.) ([3]; Tested HLA B*51:01): 53.3
YADPFFLKY (listed as Human cytomegalovirus) [SEQ ID NO: 51],90.9,CD8,100.0,15/15,Positive,Tetramer staining ([4]; Tested HLA A*01:01): positive; ELISpot response rate (ex vivo) ([1]; Tested HLA A*01:01): 90.9; Intracellular staining ([2]; Tested HLA A*01:01): CD8; ELISpot response rate (12 d stim.) ([3]; Tested HLA A*01:01): 100.0
